Tests used:
[1] = biological target: somatostatin receptor-5 (SSTR5) (Homo sapiens, UniProt P35346); conditions: on the β-cell; cited from earlier work
[2] = long-term usage, acromegaly or other disorders; cited from earlier work
[3] = children with obesity secondary to cranial insult and insulin hypersecretion; cited from earlier work
[4] = Safety: blood pressure, glucose (FBG, CBG, HbA1c, IGT), TSH, free T4, lipids, adverse events, octreotide-LAR 24 weeks
Description: Inclusion criteria were ages 18-65 years and body mass index (BMI)≧35. The screening evaluation included a complete history and physical examination, and the following studies: Comprehensive Metabolic Panel (CMP), serum glucose 2 hours after an 75 gm oral glucose load, gallbladder ultrasound, and urine pregnancy test (if female). Exclusion criteria included gallstones, hypertension, diabetes mellitus (by ADA criteria), renal or liver disease, or use of chronic medications except for thyroid or estrogen supplementation. Subjects were evaluated every four weeks for 24 weeks. […]
Chemical Analyses: Serum glucose during OGTT was measured by the glucose oxidase method (Kadish, et al., “A new and rapid method for the determination of glucose by measurement of rate of oxygen consumption,” Clin Chem, 14:116-119 (1968), which is hereby incorporated by reference in its entirety). Serum immunoreactive insulin (μU/ml) and C-peptide (ng/ml) levels from each OGTT sample were measured by standard double-antibody radioimmunoassay (RIA) (Linco Research; St Louis, Mo.). Leptin was measured by double antibody RIA, and IGF-1 by competitive binding RIA (Endocrine Sciences; Calabasas Hills, Calif.). […]

[5] = Fasting leptin and IGF-1 (RIA), octreotide-LAR 24 weeks; format: in vivo, human; conditions: Week 24-Week 0; High Responders (n = 8)
[6] = system: early phase of insulin secretion; conditions: dose-dependent; cited from earlier work

Sequence of somatostatin receptor-5 (SSTR5) (P35346 whole entry, species assumed): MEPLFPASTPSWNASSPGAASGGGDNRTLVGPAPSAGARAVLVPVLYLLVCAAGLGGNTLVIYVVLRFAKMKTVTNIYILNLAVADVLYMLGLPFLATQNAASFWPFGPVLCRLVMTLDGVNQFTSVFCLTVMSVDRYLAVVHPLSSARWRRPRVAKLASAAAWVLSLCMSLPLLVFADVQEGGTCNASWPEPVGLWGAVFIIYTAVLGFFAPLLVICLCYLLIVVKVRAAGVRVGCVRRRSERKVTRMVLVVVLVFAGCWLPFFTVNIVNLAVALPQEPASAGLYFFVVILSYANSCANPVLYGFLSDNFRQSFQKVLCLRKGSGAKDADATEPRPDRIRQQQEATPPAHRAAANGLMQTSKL

D-phenylalanyl-L-cysteinyl-L-phenylalanyl-D-tryptophyl-L-lysyl-L-threonyl-N-[2-hydroxy-1(hydroxymethyl)propyl]-L-cysteinamide cyclic (2=>7)-disulfide [octreotide]
Binding to somatostatin receptor-5 (SSTR5) [1]: binds | Weight and fat mass [2]: minimal positive effect | Weight [3]: promotes weight loss | HR subjects demonstrating IGT ([4]; at Week 0 and at Week 24): none | Percent of subjects with IGT ([4]; end of the study (32% before treatment)): 73% | Δ IGF-1 [5]: least suppression | Early phase of insulin secretion [6]: inhibit
